Structures can show the parent of a compound that is named as a salt. Blank lines part the entries; values can stand above or below the compound they belong to.
Key:
AMPA receptor = assay: [3H]-AMPA binding inhibitory activity; conditions: rat cerebral membrane
Procedure: Determination of [^3 H]-AMPA Binding Activity
A mixture (0.5 ml) of about 45 nM [^3 H]-AMPA (2-amino-3-(3-hydroxy-5-methyl-4-isoxazole)propionic acid), about […] of rat cerebral membrane specimen and the test compound was allowed to react on ice-water for 45 minutes. The amount of [^3 H]-AMPA bound to quisqualic acid receptors was determined by the filtration method. Of the total amount of binding, the portion substituted for by 10 μM quisqualic acid was regarded as specific binding. The test compound was evaluated by determining the percentage inhibition of the specific binding.

[1] = test system: animal model of brain ischemia; conditions: reported in the literature; cited from earlier work
[2] = test system: NMDA-induced neuropathy, animal models of epilepsy or brain ischemia; conditions: reported in the literature; cited from earlier work
DBA/2 mice = assay: Audiogenic convulsion inhibitory activity in DBA/2 mice; format: in vivo; conditions: Mus musculus, ip, 0.25 h, intraperitoneal, given 15 minutes before sound stimulation, read-out: dose at which audiogenic convulsions were inhibited
Procedure: Determination of Audiogenic Convulsion Inhibitory Activity in DBA/2 Mice
Ten male mice, 21-28 days old, were placed in a soundproof box and loaded with a sound stimulus of 12 KHz and 120 dB for 1 minute or until the mice developed tonic convulsions.
The test compound was suspended in 0.5% methylcellulose solution or dissolved in physiological saline and administered intraperitoneally 45 or 15 minutes before sound stimulation.
The effect of the test compound was evaluated according to the onset of convulsion and the minimum effective dose (MED) was determined.

[3] = test system: nerve cells in the hippocampus CA1; assay: Neuron-protective action in the hippocampus, gerbil model of ischemia; format: in vivo; conditions: administered 60, 70 and 85 minutes after 5-minute ischemia (regimen 2, 30 mg/kg/dose i.p.)
Procedure: Neuron-Protective Action in the Hippocampus
The protective action on nerve cell necrosis due to cerebral ischemia was tested using a gerbil model of ischemia constructed by occlusion of the bilateral common carotid arteries.
The bilateral common carotid arteries of the gerbil were occluded for 5 minutes under halothane anesthesia with the animal kept warm to avoid hypothermia and, then, the animal was allowed to recover from anesthesia. After 4 days, the brain was isolated and sections were prepared for histological examination of the degree of neuronal damage in the hippocampus CA1.
The test compound, either suspended in 0.5% methylcellulose solution or dissolved in physiological saline, was administered intraperitoneally. Two dosage regimens were employed. In regimen 1, 30 mg/kg/dose was administered 45 and 15 minutes before ischemia and 5 minutes and 1, 2, 3, 6 and 24 hours after obtaining re-patency. In regimen 2, 30 mg/kg/dose was administered 60, 70 and 85 minutes after obtaining re-patency.
Histopathological examination was performed using a light microscope. The degree of nerve cell impairment in the hippocampus CA1 area was rated on a 4-point scale of no lesion (score 0), slight necrosis (score 1), moderate necrosis (score 2) and complete necrosis (score 3).

- AMPA receptor binding inhibitory activity (AMPA receptor; at 1 μM): 96%
- Ki (AMPA receptor): 21 nM
SMILES: O=c1[nH]c2cc([N+](=O)[O-])c(-n3ccnc3)cc2n(O)c1=O [Example 8, 1-hydroxy-7-imidazolyl-6-nitroquinoxaline-2,3-(1H,4H)-dione]

SMILES: NC1CCN(O)C1=O (stereo not shown) [HA-966]
- efficacy in an animal model of brain ischemia [1]: effective

SMILES: NC(CCCCCP(=O)(O)O)C(=O)O (stereo not shown) [2-amino-7-phosphonoheptanoic acid]
- efficacy in NMDA-induced neuropathy and in animal models of epilepsy or brain ischemia [2]: effective

SMILES: NS(=O)(=O)c1cccc2c1c([N+](=O)[O-])cc1[nH]c(=O)c(=O)[nH]c12 [NBQX]
- efficacy in an animal model of brain ischemia [1]: effective

SMILES: O=c1[nH]c2cc(-n3ccnc3)c(C(F)(F)F)cc2[nH]c1=O [Example 9, 6-(1-imidazolyl)-7-trifluoromethylquinoxaline-2,3-(1H,4H)-dione hydrochloride hydrate]
- minimal effective dose (DBA/2 mice): 3 mg/kg

SMILES: NC(CCCP(=O)(O)O)C(=O)O (stereo not shown) [2-amino-5-phosphonovalerianic acid]
- efficacy in NMDA-induced neuropathy and in animal models of epilepsy or brain ischemia [2]: effective

SMILES: O=c1[nH]c2cc(-n3ccnc3)c([N+](=O)[O-])cc2[nH]c1=O [Example 15, 6-imidazolyl-7-nitroquinoxaline-2,3-(1H,4H)-dione]
- minimal effective dose (DBA/2 mice): 3 mg/kg
- lesion score (hippocampus CA1, scale 0-3) [3]: 1.2
- neuron protecting activity [3]: 60%

Reference: patent US5283244A, “Fused pyrazine derivatives” (Yamanouchi Pharmaceutical Co., Ltd., priority 1990, dated 1994)
